Measured values published in patent US11439641B2, “Pyrimidine JAK inhibitors for the treatment of skin diseases” (THERAVANCE BIOPHARMA R&D IP, LLC, priority 2019, dated 2022).
Values after ≈ are worked out from the molar mass of the structure shown.

How the values were obtained:
JAK1 = JAK1 (Homo sapiens (Human), UniProt P23458); assay: Biochemical JAK and Tyk2 Kinase Assays (LanthaScreen), JAK1; conditions: 25 μM ATP (Km), pIC50 converted to pKi by Cheng-Prusoff
JAK2 = JAK2 (Homo sapiens (Human), UniProt O60674); assay: Biochemical JAK and Tyk2 Kinase Assays (LanthaScreen), JAK2; conditions: 3 μM ATP (Km); pIC50 converted to pKi by Cheng-Prusoff
Sequence of JAK2 (O60674 whole entry): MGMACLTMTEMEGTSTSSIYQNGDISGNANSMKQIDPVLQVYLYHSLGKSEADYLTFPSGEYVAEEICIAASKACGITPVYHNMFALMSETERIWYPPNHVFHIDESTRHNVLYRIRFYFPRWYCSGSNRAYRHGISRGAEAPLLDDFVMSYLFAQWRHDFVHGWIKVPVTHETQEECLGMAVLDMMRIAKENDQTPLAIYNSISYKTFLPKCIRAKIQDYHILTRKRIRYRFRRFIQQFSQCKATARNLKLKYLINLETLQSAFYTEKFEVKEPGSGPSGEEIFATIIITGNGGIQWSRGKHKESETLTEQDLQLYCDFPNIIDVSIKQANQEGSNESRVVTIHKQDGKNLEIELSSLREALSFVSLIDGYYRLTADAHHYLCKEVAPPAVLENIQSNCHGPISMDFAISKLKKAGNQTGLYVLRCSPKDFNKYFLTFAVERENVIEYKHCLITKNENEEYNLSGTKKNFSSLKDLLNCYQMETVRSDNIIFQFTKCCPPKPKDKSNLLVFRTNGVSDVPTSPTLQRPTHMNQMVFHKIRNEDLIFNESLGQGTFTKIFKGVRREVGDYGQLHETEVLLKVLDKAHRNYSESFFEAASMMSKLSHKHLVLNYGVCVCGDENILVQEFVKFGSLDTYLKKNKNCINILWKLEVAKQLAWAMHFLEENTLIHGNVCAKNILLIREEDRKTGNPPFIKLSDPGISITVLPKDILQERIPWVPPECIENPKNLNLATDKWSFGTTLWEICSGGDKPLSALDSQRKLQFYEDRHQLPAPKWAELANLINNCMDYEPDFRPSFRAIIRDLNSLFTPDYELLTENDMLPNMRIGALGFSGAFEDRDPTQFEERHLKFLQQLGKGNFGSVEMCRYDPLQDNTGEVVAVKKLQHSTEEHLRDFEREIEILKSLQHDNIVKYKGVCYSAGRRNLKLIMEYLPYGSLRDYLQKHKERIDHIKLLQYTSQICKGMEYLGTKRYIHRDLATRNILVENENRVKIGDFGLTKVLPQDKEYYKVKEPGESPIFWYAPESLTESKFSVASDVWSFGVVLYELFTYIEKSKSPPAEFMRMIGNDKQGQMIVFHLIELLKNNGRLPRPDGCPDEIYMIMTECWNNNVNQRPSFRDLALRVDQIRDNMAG
Experimental: (§1) Assay 1: Biochemical JAK and Tyk2 Kinase Assays
(§2) A panel of four LanthaScreen JAK biochemical assays (JAK1, 2, 3 and Tyk2) were carried in a common kinase reaction buffer (50 mM HEPES, pH 7.5, 0.01% Brij-35, 10 mM MgCl2, and 1 mM EGTA). Recombinant GST-tagged JAK enzymes and a GFP-tagged STAT1 peptide substrate were obtained from Life Technologies.
(§3) Serially or discretely diluted compounds were pre-incubated with each of the four JAK enzymes and the substrate in white 384-well microplates (Corning) at ambient temperature for 1 h. ATP was subsequently added to initiate the kinase reactions in 10 μL total volume, with 1% DMSO. The final enzyme concentrations for JAK1, 2, 3 and Tyk2 are 4.2 nM, 0.1 nM, 1 nM, and 0.25 nM respectively; the corresponding Km ATP concentrations used are 25 μM, 3 μM, 1.6 μM, and 10 μM; while the substrate concentration is 200 nM for all four assays. Kinase reactions were allowed to proceed for 1 hour at ambient temperature before a 10 μL preparation of EDTA (10 mM final concentration) and Tb-anti-pSTAT1 (pTyr701) antibody (Life Technologies, 2 nM final concentration) in TR-FRET dilution buffer (Life Technologies) was added. The plates were allowed to incubate at ambient temperature for 1 h before being read on the EnVision reader (Perkin Elmer). Emission ratio signals (520 nm/495 nm) were recorded and utilized to calculate the percent inhibition values based on DMSO and background controls.
(§4) For dose-response analysis, percent inhibition data were plotted vs. compound concentrations, and IC50 values were determined from a 4-parameter robust fit model with the Prism software (GraphPad Software). Results were expressed as pIC50 (negative logarithm of IC50) and subsequently converted to pKi (negative logarithm of dissociation constant, Ki) using the Cheng-Prusoff equation.

JAK3 = JAK3 (Homo sapiens (Human), UniProt P52333); assay: Biochemical JAK and Tyk2 Kinase Assays (LanthaScreen), JAK3; conditions: 1.6 μM ATP (Km), pIC50 converted to pKi by Cheng-Prusoff; for Ki: read-out: JAK 3 (pKi) (converted)
Sequence of JAK3 (P52333 whole entry): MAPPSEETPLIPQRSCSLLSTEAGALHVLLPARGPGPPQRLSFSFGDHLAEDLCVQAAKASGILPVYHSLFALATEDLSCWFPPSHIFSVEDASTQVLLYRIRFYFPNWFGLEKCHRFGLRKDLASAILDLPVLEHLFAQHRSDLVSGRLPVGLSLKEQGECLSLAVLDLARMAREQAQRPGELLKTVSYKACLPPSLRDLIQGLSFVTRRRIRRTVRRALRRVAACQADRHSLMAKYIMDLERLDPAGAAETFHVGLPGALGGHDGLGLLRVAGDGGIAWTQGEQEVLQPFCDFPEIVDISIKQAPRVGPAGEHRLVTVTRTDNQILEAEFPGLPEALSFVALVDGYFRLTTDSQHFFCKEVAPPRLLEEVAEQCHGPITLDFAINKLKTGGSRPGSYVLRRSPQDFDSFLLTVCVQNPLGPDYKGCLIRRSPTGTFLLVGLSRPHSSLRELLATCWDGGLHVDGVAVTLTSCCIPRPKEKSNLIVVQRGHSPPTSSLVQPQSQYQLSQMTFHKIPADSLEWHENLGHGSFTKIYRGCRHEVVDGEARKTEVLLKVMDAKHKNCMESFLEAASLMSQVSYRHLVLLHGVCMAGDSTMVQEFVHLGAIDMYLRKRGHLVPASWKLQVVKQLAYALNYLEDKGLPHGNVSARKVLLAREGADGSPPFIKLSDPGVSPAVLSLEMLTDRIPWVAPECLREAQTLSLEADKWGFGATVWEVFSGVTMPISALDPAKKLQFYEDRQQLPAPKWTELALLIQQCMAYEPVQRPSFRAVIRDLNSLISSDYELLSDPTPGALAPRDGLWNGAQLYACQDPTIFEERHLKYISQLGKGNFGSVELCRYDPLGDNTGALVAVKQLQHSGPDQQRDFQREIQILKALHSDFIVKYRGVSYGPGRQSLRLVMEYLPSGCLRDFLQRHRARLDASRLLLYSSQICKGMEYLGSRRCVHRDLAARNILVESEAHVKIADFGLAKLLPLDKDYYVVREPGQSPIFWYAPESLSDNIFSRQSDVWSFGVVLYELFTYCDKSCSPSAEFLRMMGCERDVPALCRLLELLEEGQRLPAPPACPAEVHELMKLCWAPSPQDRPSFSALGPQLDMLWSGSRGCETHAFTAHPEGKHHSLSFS

Tyk2 = Tyk2 (Homo sapiens (Human), UniProt P29597); assay: Biochemical JAK and Tyk2 Kinase Assays (LanthaScreen), Tyk2; conditions: 10 μM ATP (Km), pIC50 converted to pKi by Cheng-Prusoff; for Ki: read-out: Tyk 2 (pKi) (converted)
Sequence of Tyk2 (P29597 whole entry): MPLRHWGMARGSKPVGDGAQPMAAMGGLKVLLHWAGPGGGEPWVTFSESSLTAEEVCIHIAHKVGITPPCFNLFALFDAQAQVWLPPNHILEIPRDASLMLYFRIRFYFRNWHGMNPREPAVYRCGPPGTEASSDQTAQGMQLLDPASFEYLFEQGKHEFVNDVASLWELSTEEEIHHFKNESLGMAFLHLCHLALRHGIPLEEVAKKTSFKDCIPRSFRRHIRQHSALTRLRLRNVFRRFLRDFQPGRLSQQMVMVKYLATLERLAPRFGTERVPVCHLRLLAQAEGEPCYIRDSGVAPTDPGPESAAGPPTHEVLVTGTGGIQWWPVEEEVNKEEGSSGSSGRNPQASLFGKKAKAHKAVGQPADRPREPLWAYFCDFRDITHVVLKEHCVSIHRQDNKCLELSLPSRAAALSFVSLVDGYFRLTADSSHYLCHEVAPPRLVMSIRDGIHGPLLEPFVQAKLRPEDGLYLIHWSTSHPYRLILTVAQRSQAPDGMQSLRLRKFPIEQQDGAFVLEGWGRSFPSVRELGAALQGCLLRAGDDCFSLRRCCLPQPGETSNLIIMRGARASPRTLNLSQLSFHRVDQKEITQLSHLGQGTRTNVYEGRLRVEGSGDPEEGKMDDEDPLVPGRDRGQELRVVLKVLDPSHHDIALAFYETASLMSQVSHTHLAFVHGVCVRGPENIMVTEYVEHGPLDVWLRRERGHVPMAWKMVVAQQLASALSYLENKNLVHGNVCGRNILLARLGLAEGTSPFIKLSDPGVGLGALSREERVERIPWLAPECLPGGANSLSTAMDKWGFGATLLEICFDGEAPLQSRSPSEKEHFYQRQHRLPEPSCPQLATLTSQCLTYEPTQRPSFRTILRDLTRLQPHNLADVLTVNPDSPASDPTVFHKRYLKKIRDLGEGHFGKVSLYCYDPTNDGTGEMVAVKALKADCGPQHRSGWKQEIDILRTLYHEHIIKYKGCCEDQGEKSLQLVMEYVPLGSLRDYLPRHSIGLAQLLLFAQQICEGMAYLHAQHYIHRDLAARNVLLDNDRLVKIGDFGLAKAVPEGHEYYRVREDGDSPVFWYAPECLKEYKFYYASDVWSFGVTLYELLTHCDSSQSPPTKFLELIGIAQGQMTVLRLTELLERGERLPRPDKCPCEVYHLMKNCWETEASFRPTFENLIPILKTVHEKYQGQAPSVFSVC
Experimental: as §1, §2, §3, §4

[1] = tested on: IL-2 stimulated pSTAT5 in Tall-1 T cells; assay: Inhibition of IL-2 Stimulated pSTAT5 in Tall-1 T Cells; type: cell-based; conditions: Tall-1 human T cell line, IL-2 300 ng/mL, AlphaLisa; for IC50: read-out: Tall-1 IL2 pSTAT5 (pIC50) (converted)
Method in brief: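 Cells preincubated with compound 1 hour at 37° C, then stimulated with IL-2 (final 300 ng/mL) for 30 minutes. After lysis, pSTAT5 (Tyr694/699) read by AlphaLISA luminescence. IC50 from inhibition curves, reported as pIC50 (mean±SD).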

Caco-2 cell monolayer = assay: Caco-2 Permeation Assay; type: in vitro ADME; conditions: Papp, 5 μM compound; for Cacoverap Kp 10^−6 cm/sec: A→B in the presence of 25 μM verapamil (P-gp inhibitor); for Caco Kp 10^−6 cm/sec: apical to basal (A→B)
Experimental: Assay 3: Caco-2 Permeation Assay
The Caco 2 permeability assay was used as a surrogate for assessment of skin permeability. This assay measures the in vitro permeability across a monolayer of Caco-2 cells, which morphologically and functionally resemble the enterocytes of the small intestine.
CacoReady 24-well transwell plates were obtained from ADMEcell (Alameda, Calif.). The compounds were evaluated at a concentration of 5 μM from 10 mM DMSO stock solutions in duplicate (n=2). Transport in the apical to basal (A→B) direction was determined in Caco 2 cell monolayers. From these values the apparent permeability (Papp) was calculated. To inform on the potential of the compound to be a P-gp substrate, the transport of the compound across the Caco-2 cell monolayer was also determined in the presence of 25 μM of the known P-gp inhibitor verapamil (Yusa and Tsuruo et al., Cancer Research, vol. 49, no. 18, 1989, pp. 5002-06).
Caco-2 culture media consisted of standard filtered DMEM, FCS 10%, L-Glutamine 1%, and PenStrep 1%. The experiment was conducted at 37° C. and in a CO2 (5%) incubator. The basal assay plate was prepared by adding 750 pt of transport buffer to A→B wells. A CacoReady™ plate was prepared by removing the Caco-2 media from the apical wells and replacing with fresh transport media (200 pt repeated for a total of 3 washes). Blank media (200 μL) was then replaced with diluted compound. To begin the incubation, the basal plate was removed from the incubator and the apical section was added on top of it. Samples were collected from the apical and basal compartments for time zero (t0). Samples were collected again after 120 minutes (t120) from the apical and basal compartments. All samples were diluted and prepared for bioanalysis by LC-MS/MS. The permeability coefficients (Papp, mean A to B) and (Papp, mean A to B+Verapamil) in cm/sec were calculated as dQ (flux)/(dt×Area×concentration).
In this assay, a compound with a Papp value of more than about 12×10−6 cm/sec is considered to have high permeability.

Aqueous Solubility Assay = conditions: PBS buffer pH 7.4; maximum upper limit 1,000 μM
[2] = Solubility Assay in Organic Excipients; conditions: maximum upper limit 20,000 μM; for Solubility in MCT (mg/mL): medium chain triglycerides (MCT)
Experimental: (§5) Assay 6: Solubility Assay in Organic Excipients
(§6) The purpose of this assay was to quantify the solubility of test compounds in different organic excipients such as diisopropyl adipate, medium chain triglycerides (MCT), propylene glycol, and polyethylene glycol. The assay required 80 μL of 100 mM DMSO test compound solution per desired excipient in addition to 40 μL required to make a test standard.
(§7) The standard was created by diluting 40 μL of 100 mM DMSO compound stock solution into 160 μL of methanol and was shaken for five minutes to ensure solution uniformity. […] This 20,000 μM solution was run on an Agilent 1260 LC-MS system by injecting 0.2 μL in order to obtain the peak area. For the test solutions, 80 μL of 100 mM DMSO compound stock solution, per excipient, were dried down into a powder overnight. Once in powder form, 400 μL of the desired excipient was added to the powder and allowed to shake vigorously for four hours. The maximum theoretical concentration for this sample solution was 20,000 μM. After four hours of shaking, the samples were centrifuged for 10 minutes at 3,000 RPM before injecting 0.2 μL on the same Agilent 1260 LC-MS system to obtain the peak area.

physchem = conditions: thermodynamic from solid
Experimental: as §5, §6, §7

[3] = oil or lipid, Solubility in MCT (mg/mL)
[4] = organic solvent or mixture, Solubility in Diisopropyl adipate (mg/mL)
[5] = organic solvent or mixture, Solubility in PEG400 (mg/mL)
[6] = organic solvent or mixture, Solubility in Propylene glycol (mg/mL)

Sequence of JAK1 (P23458 whole entry): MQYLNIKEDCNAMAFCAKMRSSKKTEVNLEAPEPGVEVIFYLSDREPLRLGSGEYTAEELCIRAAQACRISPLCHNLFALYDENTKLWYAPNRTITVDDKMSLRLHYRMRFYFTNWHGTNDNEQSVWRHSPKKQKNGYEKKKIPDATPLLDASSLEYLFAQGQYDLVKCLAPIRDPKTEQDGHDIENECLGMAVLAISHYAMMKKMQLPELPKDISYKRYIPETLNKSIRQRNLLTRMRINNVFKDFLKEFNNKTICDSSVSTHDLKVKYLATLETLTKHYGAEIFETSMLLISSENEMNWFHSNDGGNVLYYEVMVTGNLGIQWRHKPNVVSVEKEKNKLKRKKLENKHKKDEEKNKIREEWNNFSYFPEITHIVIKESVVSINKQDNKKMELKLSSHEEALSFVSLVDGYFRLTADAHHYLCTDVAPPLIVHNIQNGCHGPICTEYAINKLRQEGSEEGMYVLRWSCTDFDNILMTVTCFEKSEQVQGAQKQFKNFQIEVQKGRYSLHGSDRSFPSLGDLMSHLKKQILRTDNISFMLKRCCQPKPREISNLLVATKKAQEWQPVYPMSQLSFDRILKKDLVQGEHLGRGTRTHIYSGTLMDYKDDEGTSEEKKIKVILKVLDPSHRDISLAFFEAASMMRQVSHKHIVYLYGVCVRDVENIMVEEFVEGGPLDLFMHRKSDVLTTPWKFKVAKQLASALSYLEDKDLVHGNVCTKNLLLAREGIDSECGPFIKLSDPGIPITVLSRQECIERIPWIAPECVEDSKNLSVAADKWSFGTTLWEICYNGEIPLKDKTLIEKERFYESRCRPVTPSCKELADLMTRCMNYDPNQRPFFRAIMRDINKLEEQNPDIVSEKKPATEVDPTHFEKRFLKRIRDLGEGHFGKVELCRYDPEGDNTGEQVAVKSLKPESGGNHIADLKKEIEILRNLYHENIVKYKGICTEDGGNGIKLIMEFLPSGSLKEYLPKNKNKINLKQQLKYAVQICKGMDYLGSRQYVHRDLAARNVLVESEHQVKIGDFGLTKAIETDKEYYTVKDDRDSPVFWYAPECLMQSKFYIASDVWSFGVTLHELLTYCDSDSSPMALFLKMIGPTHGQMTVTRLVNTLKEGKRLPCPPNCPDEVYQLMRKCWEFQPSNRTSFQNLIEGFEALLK

SMILES	JAK 1 (pKi) (JAK1)	JAK 2 (pKi) (JAK2)	JAK 3 (pKi) (JAK3)	Tyk 2 (pKi) (Tyk2)	Tall-1 IL2 pSTAT5 (pIC50) [1]	Cacoverap Kp 10^−6 cm/sec (Caco-2 cell monolayer)	Caco Kp 10^−6 cm/sec (Caco-2 cell monolayer)	Solubility at PH 7.4 (μmol) (Aqueous Solubility Assay)	Solubility in PEG400 (mg/mL) [2]	Solubility in Diisopropyl adipate (mg/mL) [2]	Solubility in MCT (mg/mL) [2]	Solubility in Propylene glycol (mg/mL) [2]	Ki (JAK3)	Ki (Tyk2)	IC50 [1]	solubility at 4 h (physchem; [3])	solubility at 4 h (physchem; [4])	solubility at 4 h (physchem; [5])	solubility at 4 h (physchem; [6])	Ki (JAK1; read-out: JAK 1 (pKi) (converted))
COC(=O)N1[C@@H]2CCC[C@H]1C[C@H](N(C)c1nc(Nc3cc(C)[nH]n3)cc(C3CCCO3)n1)C2 (stereo partly drawn) [Compound 11, methyl (1R,3s,5S)-3-(methyl(4-((5-methyl-1H-pyrazol-3-yl)amino)-6-(tetrahydrofuran-2-yl)pyrimidin-2-yl)amino)-9-azabicyclo[3.3.1]nonane-9-carboxylate]	A (A represents a pKi value ≥10 (Ki≤0.1 nM))	B (B represents a pKi value between 9 and 10 (Ki between 1 nM and 0.1 nM))	C (C represents a pKi value between 8 and 9 (Ki between 10 nM and 1 nM))	B (B represents a pKi value between 9 and 10 (Ki between 1 nM and 0.1 nM))	A (A represents a pIC50 value ≥8.0)	B (B represents a value between 20×10^−6 and 35×10^−6 cm/sec)	B (B represents a value between 15×10^−6 and 30×10^−6 cm/sec)	C (C represents a value between 50 and 250)	A (A represents a value above 10)	A (A represents a value above 10)	B (B represents a value between 5 and 10)	A (A represents a value above 10)	–	–	–	–	–	–	–	–
COCCOC(=O)N1[C@@H]2CCC[C@H]1C[C@H](N(C)c1nc(Nc3cc(C)[nH]n3)cc(C3CCCO3)n1)C2 (stereo partly drawn) [Compound 13, 2-methoxyethyl (1R,3s,5S)-3-(methyl(4-((5-methyl-1H-pyrazol-3-yl)amino)-6-(tetrahydrofuran-2-yl)pyrimidin-2-yl)amino)-9-azabicyclo[3.3.1]nonane-9-carboxylate]	A (A represents a pKi value ≥10 (Ki≤0.1 nM))	A (A represents a pKi value ≥10 (Ki≤0.1 nM))	C (C represents a pKi value between 8 and 9 (Ki between 10 nM and 1 nM))	B (B represents a pKi value between 9 and 10 (Ki between 1 nM and 0.1 nM))	B (B represents a pIC50 value between 7.5 (included) and 8.0)	–	–	C (C represents a value between 50 and 250)	A (A represents a value above 10)	A (A represents a value above 10)	B (B represents a value between 5 and 10)	A (A represents a value above 10)	–	–	–	–	–	–	–	–
Cc1cc(Nc2cc(C3CCCO3)nc(N(C)[C@@H]3C[C@H]4CCC[C@@H](C3)N4C(=O)OC3CCOCC3)n2)n[nH]1 (stereo partly drawn) [Compound 14, tetrahydro-2H-pyran-4-yl (1R,3s,5S)-3-(methyl(4-((5-methyl-1H-pyrazol-3-yl)amino)-6-(tetrahydrofuran-2-yl)pyrimidin-2-yl)amino)-9-azabicyclo[3.3.1]nonane-9-carboxylate]	A (A represents a pKi value ≥10 (Ki≤0.1 nM))	A (A represents a pKi value ≥10 (Ki≤0.1 nM))	C (C represents a pKi value between 8 and 9 (Ki between 10 nM and 1 nM))	B (B represents a pKi value between 9 and 10 (Ki between 1 nM and 0.1 nM))	B (B represents a pIC50 value between 7.5 (included) and 8.0)	B (B represents a value between 20×10^−6 and 35×10^−6 cm/sec)	B (B represents a value between 15×10^−6 and 30×10^−6 cm/sec)	D (D represents a value between 10 and 50)	A (A represents a value above 10)	A (A represents a value above 10)	B (B represents a value between 5 and 10)	A (A represents a value above 10)	–	–	–	–	–	–	–	–
Cc1cc(Nc2cc(O[C@@H]3CCOC3)nc(N(C)[C@@H]3C[C@H]4CCC[C@@H](C3)N4C(=O)OC3CCOCC3)n2)n[nH]1 [Compound 21]	A (A represents a pKi value ≥10 (Ki≤0.1 nM))	A (A represents a pKi value ≥10 (Ki≤0.1 nM))	–	–	–	B (B represents a value between 20×10^−6 and 35×10^−6 cm/sec)	B (B represents a value between 15×10^−6 and 30×10^−6 cm/sec)	–	–	–	–	–	0.1 to 1 nM	0.1 to 1 nM	10 to 31.6 nM	5000 to 10000 µg/mL (≈ 9.23 to 18.5 mM)	> 10000 µg/mL	> 10000 µg/mL	> 10000 µg/mL	–
COCCOC(=O)N1[C@@H]2CCC[C@H]1C[C@H](N(C)c1nc(Nc3cc(C)[nH]n3)cc(O[C@@H]3CCOC3)n1)C2 [Compound 22]	A (A represents a pKi value ≥10 (Ki≤0.1 nM))	A (A represents a pKi value ≥10 (Ki≤0.1 nM))	–	–	–	B (B represents a value between 20×10^−6 and 35×10^−6 cm/sec)	B (B represents a value between 15×10^−6 and 30×10^−6 cm/sec)	–	–	–	–	–	0.1 to 1 nM	0.1 to 1 nM	10 to 31.6 nM	< 5000 µg/mL	> 10000 µg/mL	> 10000 µg/mL	> 10000 µg/mL	–
Cc1cc(Nc2cc(O[C@H]3CCOC3)nc(N(C)[C@@H]3C[C@H]4CCC[C@@H](C3)N4CC(=O)N3CCCC3)n2)n[nH]1 [Compound 31]	–	A (A represents a pKi value ≥10 (Ki≤0.1 nM))	–	–	–	C (C represents a value between 12×10^−6 and 20×10^−6 cm/sec)	C (C represents a value below 15×10^−6 cm/sec)	–	–	–	–	–	0.1 to 1 nM	0.1 to 1 nM	≤ 10 nM	< 5000 µg/mL	< 5000 µg/mL	< 5000 µg/mL	< 5000 µg/mL	0.1 to 1 nM
